# Measurements from ChEMBL document CHEMBL5608232, “Novel Glucagon-like Peptide 1 Receptor Agonists for Treating Type II Diabetes” (ACS Med Chem Lett, 2024).
# pEC50: −log10 of the molar value.
# Biological target: Glucagon-like peptide 1 receptor (Homo sapiens, UniProt P43220)
# Assay: Agonist activity at human GLP-1R expressed in HEK293 cells assessed as increase in intracellular cAMP level incubated for 30 mins by HTRF assay
# Assay type: functional, cell-based
# Chain of Glucagon-like peptide 1 receptor (P43220 whole entry): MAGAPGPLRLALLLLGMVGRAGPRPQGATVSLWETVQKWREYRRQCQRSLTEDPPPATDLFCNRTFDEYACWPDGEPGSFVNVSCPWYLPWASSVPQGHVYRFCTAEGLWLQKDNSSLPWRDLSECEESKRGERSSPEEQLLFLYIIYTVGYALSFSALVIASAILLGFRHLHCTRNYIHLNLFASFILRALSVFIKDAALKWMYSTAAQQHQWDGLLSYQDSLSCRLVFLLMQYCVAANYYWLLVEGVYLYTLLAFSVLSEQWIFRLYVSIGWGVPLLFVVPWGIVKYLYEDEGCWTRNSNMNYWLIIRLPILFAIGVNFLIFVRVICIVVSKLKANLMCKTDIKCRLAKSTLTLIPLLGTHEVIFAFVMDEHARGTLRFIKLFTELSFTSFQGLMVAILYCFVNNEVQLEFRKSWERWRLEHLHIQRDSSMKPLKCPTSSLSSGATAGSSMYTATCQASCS
row,SMILES,pEC50
1,COc1cc(C(=O)O)cc2c1nc(Cc1cc(F)c(-c3cccc(OCc4ccc(C#N)cc4C)n3)cc1F)n2C[C@@H]1CCO1,9.52
2,COCCOc1cc(C(=O)O)cc2c1nc(Cc1cc(F)c(-c3cccc(OCc4ccc(C#N)cc4F)n3)cc1F)n2C[C@@H]1CCO1,9.53
3,COc1cc(C(=O)O)cc2c1nc(Cc1cc(F)c(-c3cccc(OCc4ccc(-n5cncn5)cc4)n3)cc1F)n2C[C@@H]1CCO1,9.40

# The remaining molecules from weak to strong by pEC50, led by results:
row,pEC50,SMILES
1,9.54,COc1cc(C(=O)O)cc2c1nc(Cc1cc(C)c(-c3cccc(OCc4ccc(C#N)cc4F)n3)cc1F)n2C[C@@H]1CCO1
2,9.66,COc1cc(C(=O)O)cc2c1nc(Cc1cc(F)c(-c3cccc(OCc4ccc(C#N)cc4F)n3)cc1F)n2C[C@@H]1CCO1
3,9.78,COc1cc(C#N)ccc1COc1cccc(-c2cc(F)c(Cc3nc4c(OC)cc(C(=O)O)cc4n3C[C@@H]3CCO3)cc2F)n1
